Measured values published in US4291053A, “Agent to be administered orally to domestic animals without cellulose digestion in the rumen” (Hoechst Aktiengesellschaft, priority 1976, dated 1981).
In brackets after ≈: the same amount, converted by molar mass. Where a name gives a salt, the structure may show the parent alone. Read-outs that look alike come from different tables or passages of the source.

Columns and labels:
Treponema hyodysenteriae = experiment: Minimum inhibiting concentration against Treponema hyodysenteriae, agar diffusion test with dilution series; format: cell-based; conditions: for MIC: Brachyspira hyodysenteriae, read-out: Minimum inhibiting concentration (MIC)
Experimental: In order to detect the surprising effect on Treponema hyodysenteriae, this microorganism was cultivated according to the method of Harris on a trypticase-soy-agar using an addition of horse blood of 5% in a CO2 /H2 atmosphere, and the minimum inhibiting concentration of Salinomycin was determined in the agar diffusion test, while using the corresponding dilution series, as compared against commercial preparations showing a particularly good effect in dysentery diseases.

[1] = Feeding test with Salinomycin as mycelium: growth and feed efficiency in early weaned piglets (Example 3); format: in vivo; conditions: for Feed efficiency per animal, relative / Weight gain per animal, relative: relative to control
Experimental: A feeding test using Salinomycin as a mycelium was carried out on 47 piglets weaned at an early age (4 weeks old) which were kept in sub-groups comprising 4 and 3 animals, respectively. The initial weight was 9.8 kg on an average. The feed ration indicated in Example 1 served as basic feed.
4 Sub-groups comprising 15 animals altogether formed the untreated control group. 4 Sub-groups comprising 16 animals altogether were given 50 mg of Salinomycin as a mycelium per kg of feed, and 4 sub-groups comprising 16 animals altogether were given 50 mg of a comparison preparation A (5-Nitroimidazol) per kg of feed. The test period was 8 weeks, with individual weighing at intervals of 2 weeks.

[2] = Feeding test with Salinomycin as raw product: growth and feed efficiency in early weaned piglets (Example 2); format: in vivo; conditions: for statistical significance of the improvement (weight gain and feed efficiency): vs control; for Feed efficiency per animal, relative / Weight gain per animal, relative: relative to control
Experimental: A feeding test using Salinomycin as a raw product was carried out on 46 piglets weaned at an early age (4 weeks old) that were kept in sub-groups comprising 3 or 4 animals.
Initial weight: 9.8 kg on an average. The feed ration indicated in Example 1 served as basic feed.
4 Sub-groups comprising 15 animals altogether formed the untreated control group. 4 Sub-groups comprising 16 animals altogether were given 25 mg of Salinomycin as raw product per kg of feed, and 4sub-groups comprising 15 animals altogether were given 50 mg of Salinomycin per kg of feed in the form of the raw product. The test period was 8 weeks, with individual weighing at intervals of 2 weeks.

[3] = Piglet test S 83/75: incidence of diarrhea in feeding test (Example 1); format: in vivo, piglets
Experimental: A feeding test using Salinomycin was carried out on 78 piglets which were kept in boxes with 4 (or 3) animals each. At the beginning of the test, the animals were about 4 weeks old. Four replicates formed one group, and the following treatments were carried out:
1st group: untreated control group
2nd group: Salinomycin as raw product 25 mg/kg of fodder
3rd group: Salinomycin as raw product 50 mg/kg of fodder
4th group: Salinomycin as mycelium 50 mg/kg of fodder
5th group: comparison preparation A 50 mg/kg of fodder (5-Nitromidazol)
The basic feed had the following composition:
The occurrence of diarrhea in the individual boxes (sub-groups) was registered in the test periods of 14 days each and in the total test run of 56 days.

specified microorganisms = conditions: antibacterial spectrum, J. Antibiotics 1974; cited from earlier work
[4] = trypticase-soy-agar with 5% horse blood, CO2/H2 atmosphere
[5] = 50 mg per kg of feed as mycelium, 8 weeks
[6] = 50 ppm (Salinomycin as mycelium), 2 weeks
[7] = 50 ppm (Salinomycin as mycelium), 4 weeks
[8] = 50 ppm (Salinomycin as mycelium), 6 weeks
[9] = 50 ppm (Salinomycin as mycelium), 8 weeks
[10] = raw product 25 ppm, 8 weeks, ++ 99% significance
[11] = raw product 50 ppm, 8 weeks, +++ 99.9% significance

## CCOc1ccc2nc3cc(N)ccc3c(N)c2c1 [Ethacridine lactate]
Treponema hyodysenteriae; [4]
  MIC: 100 µg/mL

## CC(C)c1ncc([N+](=O)[O-])n1C [Ipronidazol]
Treponema hyodysenteriae; [4]
  MIC: 2 µg/mL (≈ 11.8 µM)

## C[n+]1c2cc(N)ccc2cc2ccc(N)cc21.[Cl-] [3,6-Diamino-10-methyl-acridinium chloride]
Treponema hyodysenteriae
  MIC: 100 µg/mL

## CN(C)[C@@H]1C(=O)C(C(N)=O)=C(O)[C@@]2(O)C(=O)C3=C(O)c4c(O)cccc4[C@@](C)(O)[C@H]3[C@H](O)[C@@H]12 [Oxytetracycline]
Treponema hyodysenteriae
  MIC: 100 µg/mL (≈ 217 µM)

## CC[C@H]1OC(=O)[C@H](C)[C@@H](O[C@H]2C[C@@](C)(OC)[C@@H](O)[C@H](C)O2)[C@H](C)[C@@H](O[C@@H]2O[C@H](C)C[C@H](N(C)C)[C@H]2O)[C@](C)(O)C[C@@H](C)C(=O)[C@H](C)[C@@H](O)[C@]1(C)O [Erythromycin]
Treponema hyodysenteriae
  MIC: > 100 µg/mL

## CN(C)[C@@H]1C(O)=C(C(N)=O)C(=O)[C@@]2(O)C(O)=C3C(=O)c4c(O)cccc4[C@@](C)(O)[C@H]3C[C@@H]12 [Tetracycline-HCl]
Treponema hyodysenteriae
  MIC: 50 µg/mL

## Cc1ncc([N+](=O)[O-])n1C [Dimethridazol]
Treponema hyodysenteriae; [4]
  MIC: 5 µg/mL (≈ 35.4 µM)

## CC[C@@H](C(=O)[C@@H](C)[C@@H](O)[C@H](C)[C@@H]1O[C@@H]([C@@H](CC)C(=O)O)CC[C@@H]1C)[C@H]1O[C@]2(C=C[C@@H](O)[C@]3(CC[C@@](C)([C@H]4CC[C@](O)(CC)[C@H](C)O4)O3)O2)[C@H](C)C[C@@H]1C [Salinomycin]
[1]; [5]
  statistical significance of the improvement of the feed efficiency: 99%
  statistical significance of the improvement of the weight development: 99.9%
[1]; [6]
  Daily weight gain per animal: 164 g
  Feed efficiency per animal, absolute: 1.983
  Weight gain per animal, absolute: 2.3 kg
  Feed efficiency per animal, relative: 100.0%
  Weight gain per animal, relative: 100.0%
[1]; [7]
  Daily weight gain per animal: 261 g
  Feed efficiency per animal, absolute: 1.726
  Weight gain per animal, absolute: 7.3 kg
  Feed efficiency per animal, relative: 91.8%
  Weight gain per animal, relative: 109.2%
[1]; [8]
  Daily weight gain per animal: 332 g
  Feed efficiency per animal, absolute: 1.723
  Weight gain per animal, absolute: 13.6 kg
  Feed efficiency per animal, relative: 92.6%
  Weight gain per animal, relative: 108.1%
[1]; [9]
  Daily weight gain per animal: 393 g
  Feed efficiency per animal, absolute: 1.837
  Weight gain per animal, absolute: 22.0 kg
[1]; 50 ppm (Salinomycin as mycelium, ++ 99% significance), 8 weeks
  Feed efficiency per animal, relative: 93.2%
[1]; 50 ppm (Salinomycin as mycelium, +++ 99.9% significance), 8 weeks
  Weight gain per animal, relative: 107.4%
[2]; raw product 25 mg per kg of feed
  statistical significance of the improvement (weight gain and feed efficiency): 99%
[2]; raw product 50 mg per kg of feed
  statistical significance of the improvement (weight gain and feed efficiency): 99.9%
[2]; raw product 25 ppm, 2 weeks
  Daily weight gain per animal: 171 g
  Feed efficiency per animal, absolute: 1.900
  Weight gain per animal, absolute: 2.4 kg
  Feed efficiency per animal, relative: 95.8%
  Weight gain per animal, relative: 104.3%
[2]; raw product 25 ppm, 4 weeks
  Daily weight gain per animal: 250 g
  Feed efficiency per animal, absolute: 1.800
  Weight gain per animal, absolute: 7.0 kg
  Feed efficiency per animal, relative: 95.7%
  Weight gain per animal, relative: 104.6%
[2]; raw product 25 ppm, 6 weeks
  Daily weight gain per animal: 317 g
  Feed efficiency per animal, absolute: 1.802
  Weight gain per animal, absolute: 13.0 kg
  Feed efficiency per animal, relative: 96.9%
  Weight gain per animal, relative: 103.3%
[2]; raw product 25 ppm, 8 weeks
  Daily weight gain per animal: 380 g
  Feed efficiency per animal, absolute: 1.898
  Weight gain per animal, absolute: 21.3 kg
[2]; [10]
  Feed efficiency per animal, relative: 96.2%
  Weight gain per animal, relative: 103.8%
[2]; raw product 50 ppm, 2 weeks
  Daily weight gain per animal: 171 g
  Feed efficiency per animal, absolute: 1.900
  Weight gain per animal, absolute: 2.4 kg
  Feed efficiency per animal, relative: 95.8%
  Weight gain per animal, relative: 104.3%
[2]; raw product 50 ppm, 4 weeks
  Daily weight gain per animal: 257 g
  Feed efficiency per animal, absolute: 1.750
  Weight gain per animal, absolute: 7.2 kg
  Feed efficiency per animal, relative: 93.0%
  Weight gain per animal, relative: 107.5%
[2]; raw product 50 ppm, 6 weeks
  Daily weight gain per animal: 337 g
  Feed efficiency per animal, absolute: 1.698
  Weight gain per animal, absolute: 13.8 kg
  Feed efficiency per animal, relative: 91.3%
  Weight gain per animal, relative: 109.8%
[2]; raw product 50 ppm, 8 weeks
  Daily weight gain per animal: 396 g
  Feed efficiency per animal, absolute: 1.821
  Weight gain per animal, absolute: 22.2 kg
[2]; [11]
  Feed efficiency per animal, relative: 92.3%
  Weight gain per animal, relative: 108.2%
[3]; 50 ppm (Salinomycin as mycelium), 1st and 2nd week
  Incidence of diarrhea, per cent of test days: 19.6%
[3]; 50 ppm (Salinomycin as mycelium), 1st and 2nd week, of 56 test days
  Incidence of diarrhea in test days: 11 days
[3]; 50 ppm (Salinomycin as mycelium), 1st through 8th week
  Incidence of diarrhea, per cent of test days: 10.7%
[3]; 50 ppm (Salinomycin as mycelium), 1st through 8th week, of 224 test days
  Incidence of diarrhea in test days: 24 days
[3]; 50 ppm (Salinomycin as mycelium), 3rd and 4th week
  Incidence of diarrhea, per cent of test days: 5.4%
[3]; 50 ppm (Salinomycin as mycelium), 3rd and 4th week, of 56 test days
  Incidence of diarrhea in test days: 3 days
[3]; 50 ppm (Salinomycin as mycelium), 5th and 6th week
  Incidence of diarrhea, per cent of test days: 7.1%
[3]; 50 ppm (Salinomycin as mycelium), 5th and 6th week, of 56 test days
  Incidence of diarrhea in test days: 4 days
[3]; 50 ppm (Salinomycin as mycelium), 7th and 8th week
  Incidence of diarrhea, per cent of test days: 10.7%
[3]; 50 ppm (Salinomycin as mycelium), 7th and 8th week, of 56 test days
  Incidence of diarrhea in test days: 6 days
[3]; depending on the dosage, against untreated control and comparison preparation
  influence on the incidence of diarrhea: very good influence on the incidence of diarrhea
[3]; raw product 25 ppm, 1st and 2nd week
  Incidence of diarrhea, per cent of test days: 48.2%
[3]; raw product 25 ppm, 1st and 2nd week, of 56 test days
  Incidence of diarrhea in test days: 27 days
[3]; raw product 25 ppm, 1st through 8th week
  Incidence of diarrhea, per cent of test days: 60.3%
[3]; raw product 25 ppm, 1st through 8th week, of 224 test days
  Incidence of diarrhea in test days: 135 days
[3]; raw product 25 ppm, 3rd and 4th week
  Incidence of diarrhea, per cent of test days: 46.6%
[3]; raw product 25 ppm, 3rd and 4th week, of 56 test days
  Incidence of diarrhea in test days: 26 days
[3]; raw product 25 ppm, 5th and 6th week
  Incidence of diarrhea, per cent of test days: 69.6%
[3]; raw product 25 ppm, 5th and 6th week, of 56 test days
  Incidence of diarrhea in test days: 39 days
[3]; raw product 25 ppm, 7th and 8th week
  Incidence of diarrhea, per cent of test days: 76.8%
[3]; raw product 25 ppm, 7th and 8th week, of 56 test days
  Incidence of diarrhea in test days: 43 days
[3]; raw product 50 ppm, 1st and 2nd week
  Incidence of diarrhea, per cent of test days: 12.5%
[3]; raw product 50 ppm, 1st and 2nd week, of 56 test days
  Incidence of diarrhea in test days: 7 days
[3]; raw product 50 ppm, 1st through 8th week
  Incidence of diarrhea, per cent of test days: 19.1%
[3]; raw product 50 ppm, 1st through 8th week, of 224 test days
  Incidence of diarrhea in test days: 43 days
[3]; raw product 50 ppm, 3rd and 4th week
  Incidence of diarrhea, per cent of test days: 12.5%
[3]; raw product 50 ppm, 3rd and 4th week, of 56 test days
  Incidence of diarrhea in test days: 7 days
[3]; raw product 50 ppm, 5th and 6th week
  Incidence of diarrhea, per cent of test days: 28.6%
[3]; raw product 50 ppm, 5th and 6th week, of 56 test days
  Incidence of diarrhea in test days: 16 days
[3]; raw product 50 ppm, 7th and 8th week
  Incidence of diarrhea, per cent of test days: 23.2%
[3]; raw product 50 ppm, 7th and 8th week, of 56 test days
  Incidence of diarrhea in test days: 13 days
Treponema hyodysenteriae
  MIC: 0.05 µg/mL (≈ 0.0666 µM)
Treponema hyodysenteriae; compared against commercial preparations, Table 1
  effect on Treponema hyodysenteriae: superior effect
Specified microorganisms
  effect against the specified microorganisms: only an insiginificant or moderate effect

## CC[C@H]1OC(=O)C[C@@H](O)[C@H](C)[C@@H](O[C@@H]2O[C@H](C)[C@@H](O[C@H]3C[C@@](C)(O)[C@@H](O)[C@H](C)O3)[C@H](N(C)C)[C@H]2O)[C@@H](CC=O)C[C@@H](C)C(=O)/C=C/C(C)=C/[C@@H]1CO[C@@H]1O[C@H](C)[C@@H](O)[C@@H](OC)[C@H]1OC [Tylosin]
Treponema hyodysenteriae
  MIC: > 100 µg/mL
